Our source for the IC50 values is publication PMC3702614, “Dietary Compound Isoliquiritigenin Inhibits Breast Cancer Neoangiogenesis via VEGF/VEGFR-2 Signaling Pathway” (PLoS ONE, 2013).

Each structure is given as a SMILES string.

The target in the test is T1, VEGFR-2 (Homo sapiens, UniProt P35968).
T1 construct: gene KDR; biotin-labeled VEGFR-2 (Prospec)
Kind of test: in vitro tyrosine kinase ELISA. In kind it is biochemical.

T1 sequence (P35968 20-1356): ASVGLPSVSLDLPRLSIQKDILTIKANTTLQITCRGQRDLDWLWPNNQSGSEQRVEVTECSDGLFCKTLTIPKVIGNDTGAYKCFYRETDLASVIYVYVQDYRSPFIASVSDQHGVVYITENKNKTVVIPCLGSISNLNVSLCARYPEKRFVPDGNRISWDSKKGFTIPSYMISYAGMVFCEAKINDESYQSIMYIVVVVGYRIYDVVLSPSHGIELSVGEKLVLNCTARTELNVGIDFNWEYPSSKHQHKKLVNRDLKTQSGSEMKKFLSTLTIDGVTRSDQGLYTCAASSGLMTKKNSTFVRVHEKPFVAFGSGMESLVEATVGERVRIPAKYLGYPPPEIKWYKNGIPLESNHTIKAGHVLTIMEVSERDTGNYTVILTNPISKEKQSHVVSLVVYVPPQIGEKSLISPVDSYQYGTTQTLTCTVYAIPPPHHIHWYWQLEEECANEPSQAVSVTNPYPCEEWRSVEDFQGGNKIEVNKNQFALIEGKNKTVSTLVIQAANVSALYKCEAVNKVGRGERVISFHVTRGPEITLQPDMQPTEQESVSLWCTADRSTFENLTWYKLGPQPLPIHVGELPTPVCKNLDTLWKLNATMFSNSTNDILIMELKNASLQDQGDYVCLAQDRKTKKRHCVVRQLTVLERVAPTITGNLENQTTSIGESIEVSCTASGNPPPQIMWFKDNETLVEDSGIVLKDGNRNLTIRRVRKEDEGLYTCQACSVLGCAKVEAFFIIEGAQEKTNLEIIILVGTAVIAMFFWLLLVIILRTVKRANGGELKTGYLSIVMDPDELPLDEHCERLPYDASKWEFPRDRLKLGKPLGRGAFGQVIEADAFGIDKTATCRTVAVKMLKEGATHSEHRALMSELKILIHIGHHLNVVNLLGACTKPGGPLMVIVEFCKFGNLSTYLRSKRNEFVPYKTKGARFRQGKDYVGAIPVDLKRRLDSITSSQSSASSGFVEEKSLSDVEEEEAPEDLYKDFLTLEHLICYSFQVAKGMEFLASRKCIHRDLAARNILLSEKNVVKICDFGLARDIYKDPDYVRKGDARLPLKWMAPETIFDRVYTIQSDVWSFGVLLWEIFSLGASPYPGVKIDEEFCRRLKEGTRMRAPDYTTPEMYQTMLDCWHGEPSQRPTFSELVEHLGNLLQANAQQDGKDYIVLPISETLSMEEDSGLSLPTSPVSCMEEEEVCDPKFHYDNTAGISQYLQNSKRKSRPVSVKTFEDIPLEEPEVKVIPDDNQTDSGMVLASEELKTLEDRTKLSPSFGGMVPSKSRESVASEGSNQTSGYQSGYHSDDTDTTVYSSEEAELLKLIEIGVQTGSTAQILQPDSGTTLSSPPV

As usually defined, the IC50 is the concentration at which inhibition is half-maximal. High values mean a need for much substance, low ones inhibition by little substance. For the compound `O=C(/C=C/c1ccc(O)cc1)c1ccc(O)cc1O` [ISL, Isoliquiritigenin], the IC50 is around 0.1 µM.
